Read-outs that look alike come from different tables or passages of the source. Marks after values point to notes of the source that are not given here.
Columns and labels:
[1] = Rabbit; 0.5%, 50 μL, 250 μg; Sigurdsson et al. (2007); cited from earlier work
[2] = 3% rifampicin solution, boric acid buffer
Experimental: In the present example, the pH value was set to be pH 2 to 12, and the concentration of a nonionic surfactant was set to be 0.001% by weight to 50% by weight. As buffer solutions, a boric acid buffer solution, and a phosphoric acid buffer solution and a citric acid buffer solution were used.
A 50 mM phosphoric acid buffer solution, a 50 mM citric acid buffer solution, or a 25 mM boric acid-borax buffer solution (all of which were final concentrations) was prepared, and thereafter, about 0.9% sodium chloride, about 0.1% EDTA, 0.01% benzalkonium chloride (all of which were final concentrations), and various concentrations of nonionic surfactants (Tween 80 or Polyoxyethylene (7) alkyl (sec-C11-15) ethers) were mixed into the solution. […] In the case of using a citric acid buffer solution, the pH value of the mixed solution was adjusted using hydrochloric acid under conditions of pH 2.6 or less. In the case of using boric acid, the pH value was adjusted using hydrochloric acid under conditions of pH 5.7 or less. […] The thus prepared solutions were continuously blended for about 2 hours, and the pH value thereof was measured at 25° C.

[3] = system: oxygen-induced retinopathy rat models; experiment: Neovascularization in retina quantified by capillaries in histology sections; type: in vivo, Sprague-Dawley rat; details: n = 3, vehicle only control 16.3
Experimental: Oxygen-induced retinopathy rat models were produced according to the protocols of Yanni et al. (2010) and Dorfmann et al. (2008). Sprague-Dawley rat babies (and their nursing mothers) were exposed to a cycling oxygen environment (80% and 21%, about one day for each) for 15 days after starting from the day of birth (Day 0). On Day 15 (P15), the animals were moved to room air. […] An eye drop formulation shown as Example 1 A in Table 1, or a vehicle only was administered to the eyes of the baby rats every day, for 5 days between P15 and P19, in the morning, about the noon, and in the evening. […] On P20, all of the animals were euthanized, and the retina was visualized as histology sections. In those histology sections, capillaries in the retinal tissues in 3 eye balls (AMD 101 topical application, AMD 101 SC injection administration group, and non-induction of retinopathy) or 5 eye balls (control administration group of a vehicle only) were counted, so that neovascularization was quantified. These eye balls were selected from different animals in the above-described administration groups. Representative images of the histology sections are shown (see FIGS. 1A to 1H).

[4] = Retina exposure level of rifampicin after application of topical eye drops (3 or 10 drops), LC/MS; type: in vivo, Sprague-Dawley rats; details: for Drug amount detected in retina: Rat, 0.25%, present study; for Rifampicin extracted from retina: rat, average of n = 3
Experimental: The remaining two rats received the same application, but 10 drops of the eye drops, in each eye under isoflurane sedation. A single drop contained 5 μL of the above-described formulation, and application of each drug drop was carried out with intervals of 30 minutes. After the eye drop application, the retina was excised from each rat under a dissection microscope. In addition, “non-treated” negative controls were used, and the retina was excised from two rats without performing any treatments on the rats. The retina was placed in a 1.5-ml microcentrifuge tube (1 retina/tube), and was fully washed with DPBS. After completion of the washing procedures, the retinal tissues in the microcentrifuge tube were frozen in dry ice, and were then preserved for quantification by LC/MS analysis.

nonionic surfactant addition by which the composition is solubilized (from relational expression) ([2]; pH 3.0)	nonionic surfactant addition by which the composition is solubilized (from relational expression) ([2]; pH 4.0)	pH at which solubilization of rifampicin does not need addition of a surfactant ([…])	rifampicin concentration whose solubilization did not need addition of a surfactant (pH range of pH 2 to pH 12) [% by weight]	Rifampicin extracted from retina ([4]; 3 drops (5 μL each, 30 min intervals) of 0.25% rifampicin eye drops (Example 1A) per eye)	Rifampicin extracted from retina ([4]; 10 drops (5 μL each, 30 min intervals) of 0.25% rifampicin eye drops (Example 1A) per eye)	SMILES	Drug amount detected in retina [1]	Average numbers of capillaries in high power field per eye ([3]; 0.25% AMD101 topical eye drop (Example 1A), three times a day P15 to P19)	Average numbers of capillaries in high power field per eye ([3]; 0.5% AMD101 SC injection (Example 6A), 20 mg/Kg once a day P15 to P19)	Drug amount detected in retina ([4]; 3 drops (15 μL, 37.5 μg))	Drug amount detected in retina ([4]; 10 drops (50 μL, 125 μg))
–	–	–	–	–	–	C[C@@H]1C[C@H]2[C@@H]3CCC4=CC(=O)C=C[C@]4(C)[C@@]3(F)[C@@H](O)C[C@]2(C)[C@@]1(O)C(=O)CO [Dexamethasone]	About 33 ng/1 g of ng/1 g of retinal tissues	–	–	–	–
about 8.2%	about 10.7%	≥ 8.5	≤ 0.002	1,288* ng/1 g of tissues	2,939* ng/1 g of tissues	CO[C@H]1/C=C/O[C@@]2(C)Oc3c(C)c(O)c4c(O)c(c(/C=N/N5CCN(C)CC5)c(O)c4c3C2=O)NC(=O)/C(C)=C\C=C\[C@H](C)[C@H](O)[C@@H](C)[C@@H](O)[C@@H](C)[C@H](OC(C)=O)[C@@H]1C [rifampicin]	–	7.78	9.28	About 1,288 ng/1 g of ng/1 g of retinal tissues	About 2,939 ng/1 g of ng/1 g of retinal tissues

Reference: patent US20240058329A1, “OPHTHALMIC COMPOSITION OF RIFAMYCIN, AND USE THEREOF” (BNC KOREA CO., LTD., priority 2020, published 2024)
